Relative viability data for five cell lines are collected here from the supplement of paper PMC10307832.

Common to all, as to assay: relative viability (nuclei count vs DMSO), 5 days (fraction); higher = more cells survive
Compound in the test “CUDC-101 + Vorinostat”: C#Cc1cccc(Nc2ncnc3cc(OC)c(OCCCCCCC(=O)NO)cc23)c1 [CUDC-101] + O=C(CCCCCCC(=O)Nc1ccccc1)NO [Vorinostat] (partner 1 µM)
The method, boiled down: (§1)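 Relative viability divides the nuclei count in treated wells by that in vehicle wells. Lung cancer cell lines were seeded in 1536-well plates, dosed by pin tool the next day, and fixed and stained after 5 days in one step with final 0.05% Triton X-100, 1% formaldehyde and 1 ug/ml Hoechst. Dosing was a single drug or a fixed anchor-drug dose plus five library-drug doses (not always all listed) in √10 steps, and values are medians of duplicate plates imaged at 4×.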

Compound in the test “Vandetanib + Alpelisib”: COc1cc2/c(=N/c3ccc(Br)cc3F)nc[nH]c2cc1OCC1CCN(C)CC1 [Vandetanib] + Cc1nc(NC(=O)N2CCC[C@H]2C(N)=O)sc1-c1ccnc(C(C)(C)C(F)(F)F)c1 [Alpelisib] (partner 2 µM)
The method, boiled down: as §1

Compound in test [1]: C1=CC=C2C(=C1)N=C(S2)C(C#N)C3=NC(=NC=C3)NCCC4=CN=CC=C4 + Cc1nc(NC(=O)N2CCC[C@H]2C(N)=O)sc1-c1ccnc(C(C)(C)C(F)(F)F)c1 [Alpelisib] (partner 2 µM)
The method, boiled down:
as §1

Compound in the test “CUDC-101 + Pictilisib”: C#Cc1cccc(Nc2ncnc3cc(OC)c(OCCCCCCC(=O)NO)cc23)c1 [CUDC-101] + CS(=O)(=O)N1CCN(Cc2cc3nc(-c4cccc5[nH]ncc45)nc(N4CCOCC4)c3s2)CC1 [Pictilisib] (partner 1 µM)
The method, boiled down:
as §1

For SK-LU-1, the relative viability with CUDC-101 + Vorinostat (first compound 0.01 µM) is 0.784; in the test with CUDC-101 + Vorinostat (first compound 0.03162 µM), 0.884; with CUDC-101 + Vorinostat (first compound 0.1 µM), 0.843; in the test with CUDC-101 + Vorinostat (first compound 0.3162 µM), 0.829; in the test with CUDC-101 + Vorinostat (first compound 1 µM) it was 0.567; in the test with Vandetanib + Alpelisib (first compound 0.02 µM) it was 1.06. Besides, the relative viability with Vandetanib + Alpelisib (first compound 0.06325 µM) amounted to 0.594; with Vandetanib + Alpelisib (first compound 0.2 µM), 1.02; in the test with Vandetanib + Alpelisib (first compound 0.6325 µM), 0.926; with Vandetanib + Alpelisib (first compound 2 µM) it was 0.758; in test [1] (first compound 0.01581 µM), 0.962; in test [1] (first compound 0.05 µM), 0.824. For the same cell line, the relative viability came to 1.27 in test [1] (first compound 0.1581 µM); 0.858 in test [1] (first compound 0.5 µM); 0.703 in the test with CUDC-101 + Pictilisib (first compound 0.01 µM); 0.597 with CUDC-101 + Pictilisib (first compound 0.03162 µM); 0.628 in the test with CUDC-101 + Pictilisib (first compound 0.1 µM); 0.427 with CUDC-101 + Pictilisib (first compound 0.3162 µM). The relative viability with CUDC-101 + Pictilisib (first compound 1 µM) is 0.381.

As for NCI-H2126, the relative viability with CUDC-101 + Vorinostat (first compound 0.01 µM) is 0.862; with CUDC-101 + Vorinostat (first compound 0.03162 µM) it was 0.777; with CUDC-101 + Vorinostat (first compound 0.1 µM), 0.713; with CUDC-101 + Vorinostat (first compound 0.3162 µM) it was 0.704; with CUDC-101 + Vorinostat (first compound 1 µM), 0.452; in the test with Vandetanib + Alpelisib (first compound 0.02 µM), 0.787. Further, the relative viability was found to be 0.74 with Vandetanib + Alpelisib (first compound 0.06325 µM); 0.757 in the test with Vandetanib + Alpelisib (first compound 0.2 µM); 0.737 with Vandetanib + Alpelisib (first compound 0.6325 µM); 0.674 with Vandetanib + Alpelisib (first compound 2 µM); 0.722 in test [1] (first compound 0.005 µM); 0.734 in test [1] (first compound 0.01581 µM). The relative viability in test [1] (first compound 0.05 µM) was 0.773; in test [1] (first compound 0.1581 µM), 0.765; in test [1] (first compound 0.5 µM) it was 0.793; in the test with CUDC-101 + Pictilisib (first compound 0.01 µM), 0.501; with CUDC-101 + Pictilisib (first compound 0.03162 µM), 0.545; with CUDC-101 + Pictilisib (first compound 0.1 µM), 0.432. Also, the relative viability is 0.446 in the test with CUDC-101 + Pictilisib (first compound 0.3162 µM) and 0.315 in the test with CUDC-101 + Pictilisib (first compound 1 µM).

NCI-H650: the relative viability with CUDC-101 + Vorinostat (first compound 0.01 µM) was 0.547; with CUDC-101 + Vorinostat (first compound 0.03162 µM) it was 0.517; with CUDC-101 + Vorinostat (first compound 0.1 µM), 0.414; in the test with CUDC-101 + Vorinostat (first compound 0.3162 µM) it was 0.456; in the test with CUDC-101 + Vorinostat (first compound 1 µM), 0.51; in the test with Vandetanib + Alpelisib (first compound 0.02 µM) it was 1.13. Besides, the relative viability in the test with Vandetanib + Alpelisib (first compound 0.06325 µM) stood at 0.998; with Vandetanib + Alpelisib (first compound 0.2 µM), 1.08; in the test with Vandetanib + Alpelisib (first compound 0.6325 µM), 1.04; with Vandetanib + Alpelisib (first compound 2 µM), 0.905; in test [1] (first compound 0.005 µM), 0.859; in test [1] (first compound 0.01581 µM) it was 1.22. For the same cell line, the relative viability is 1.04 in test [1] (first compound 0.05 µM); 1.18 in test [1] (first compound 0.1581 µM); 1.2 in test [1] (first compound 0.5 µM); 0.856 with CUDC-101 + Pictilisib (first compound 0.01 µM); 0.888 in the test with CUDC-101 + Pictilisib (first compound 0.03162 µM); 1.05 in the test with CUDC-101 + Pictilisib (first compound 0.1 µM). Also, the relative viability is 0.705 with CUDC-101 + Pictilisib (first compound 0.3162 µM) and 0.51 in the test with CUDC-101 + Pictilisib (first compound 1 µM).

201T: the relative viability with CUDC-101 + Vorinostat (first compound 0.01 µM) was found to be 1.02; with CUDC-101 + Vorinostat (first compound 0.03162 µM), 0.954; in the test with CUDC-101 + Vorinostat (first compound 0.1 µM), 0.937; in the test with CUDC-101 + Vorinostat (first compound 0.3162 µM), 0.982; in the test with CUDC-101 + Vorinostat (first compound 1 µM), 0.842; with Vandetanib + Alpelisib (first compound 0.02 µM) it was 1.08. Moreover, the relative viability with Vandetanib + Alpelisib (first compound 0.06325 µM) was found to be 0.959; in the test with Vandetanib + Alpelisib (first compound 0.2 µM), 0.985; with Vandetanib + Alpelisib (first compound 0.6325 µM), 0.977; with Vandetanib + Alpelisib (first compound 2 µM), 0.995; in test [1] (first compound 0.005 µM) it was 0.995; in test [1] (first compound 0.01581 µM) it was 1.08. In addition, the relative viability amounted to 1.04 in test [1] (first compound 0.05 µM); 1.03 in test [1] (first compound 0.1581 µM); 0.967 in test [1] (first compound 0.5 µM); 0.702 in the test with CUDC-101 + Pictilisib (first compound 0.01 µM); 0.653 with CUDC-101 + Pictilisib (first compound 0.03162 µM); 0.636 with CUDC-101 + Pictilisib (first compound 0.1 µM). The relative viability was 0.626 with CUDC-101 + Pictilisib (first compound 0.3162 µM) and 0.59 in the test with CUDC-101 + Pictilisib (first compound 1 µM).

For LU99A, the relative viability in the test with CUDC-101 + Vorinostat (first compound 0.01 µM) is 0.529; with CUDC-101 + Vorinostat (first compound 0.03162 µM), 0.477; with CUDC-101 + Vorinostat (first compound 0.1 µM), 0.452; in the test with CUDC-101 + Vorinostat (first compound 0.3162 µM), 0.389; with CUDC-101 + Vorinostat (first compound 1 µM), 0.219; with Vandetanib + Alpelisib (first compound 0.02 µM), 0.52. For the same cell line, the relative viability amounted to 0.446 with Vandetanib + Alpelisib (first compound 0.06325 µM); 0.511 with Vandetanib + Alpelisib (first compound 0.2 µM); 0.414 with Vandetanib + Alpelisib (first compound 0.6325 µM); 0.596 with Vandetanib + Alpelisib (first compound 2 µM); 0.509 in test [1] (first compound 0.005 µM); 0.545 in test [1] (first compound 0.01581 µM). Also, the relative viability came to 0.522 in test [1] (first compound 0.05 µM); 0.548 in test [1] (first compound 0.1581 µM); 0.536 in test [1] (first compound 0.5 µM); 0.323 with CUDC-101 + Pictilisib (first compound 0.01 µM); 0.299 with CUDC-101 + Pictilisib (first compound 0.03162 µM); 0.33 with CUDC-101 + Pictilisib (first compound 0.1 µM). For the same cell line, the relative viability with CUDC-101 + Pictilisib (first compound 0.3162 µM) was determined as 0.253; in the test with CUDC-101 + Pictilisib (first compound 1 µM), 0.148.
